Experimental data from patent US20150376225A1, “NOVEL COMPOUNDS OF 11BETA-HYDROXY-STEROIDS FOR USE IN MITOCHONDRIA BIOGENESIS AND DISEASES ASSOCIATED WITH MITOCHONDRIAL DYSFUNCTION OR DEPLETION” (SPHAERA PHARMA PVTD. LTD., priority 2013, published 2015).

test system: AMPK; test: AMPK activation, cell based ELISA in Hep G2 cells; conditions: 1 h incubation, DMSO control as 100%
Description: AMPK Activation Protocol:
AMPK activation potential of the compounds was evaluated using cell based ELISA.
Hepatoma (Hep G2) liver cells were maintained in a T 75 culture flask-containing 25 mM DMEM+10% fetal calf serum. The cells were maintained in a T 75 culture flask-containing medium (DMEM+10% fetal calf serum). On reaching a confluence of 70 to 80%, the cells were seeded in a 96 well plate at a density of 40,000 cells per well in 25 mM DMEM+10% FCS medium. The plates were then incubated at 37° C. with 5% CO2 for 24 hours. Various concentrations of drugs were prepared in DMSO and diluted to required concentration with the medium and incubated at 37° C. with 5% CO2 for 30 min and 1 h for Epicatechin analogs and 11-BHP analogs respectively. Metformin was used as positive control. Cells were fixed with 4% formaldehyde for 30 minutes at room temperature and washed three times with PBS containing 0.1% Triton X-100. Endogenous peroxidase was quenched with 1% H2O2 in PBS-T (0.1% Tween 20) for 30 minutes and washed three times in PBS-T. Cells were blocked with 1% BSA in PBS-T for 1 hour.

**Q.** For `CC(=O)C1CCC2C3CC=C4CC5(CC[C@]4(C)C3[C@@H](O)C[C@]12C)OCCO5` (stereo partly drawn) [Compound 1029, 1-((10R,11S,13S)-11-hydroxy-10,13-dimethyl-1,2,4,7,8,9,10,11,12,13,14,15,16,17-tetradecahydrospiro[cyclopenta[a]phenan-threne-3,2′-[1,3]dioxolan]-17-yl)ethan-1-one], which “% activation pAMPK at 1 nM” value is on record?
**A.** The value was 105%.

**Q.** Which “% activation pAMPK at 1 nM” value does the source give for `CN(C)C(=O)C1CCC2C3CCC4=CC(=O)CC[C@]4(C)C3[C@@H](O)C[C@]12C` (stereo partly drawn) [Compound 1030, (10R,11S,13S)-11-hydroxy-N,N,10,13-tetramethyl-3-oxo-2,3,6,7,8,9,10,11,12,13,14,15,16,17-tetradecahydro-1H-cyclopenta[a]phenanthrene-17-carboxamide] here?
**A.** Its value is 105%.

**Q.** Which “% activation pAMPK at 1 nM” value does the source give for `C/C(=N/O)[C@H]1CCC2C3CCC4=C/C(=N\O)CC[C@]4(C)C3[C@@H](O)C[C@@]21C` (stereo partly drawn) [Compound 1031, (10R,11S,13S,17S,Z)-11-hydroxy-17-((Z)-1-(hydroxyimino)ethyl)-10,13-dimethyl-1,2,6,7,8,9,10,11,12,13,14,15,16,17-tetradecahydro-3H-cyclopenta[a]phenanthren-3-one oxime] here?
**A.** Its value is 109%.

**Q.** With `CN(C)C(=O)C1CCC2C3CCC4CC(=O)CC[C@]4(C)C3[C@@H](O)C[C@]12C` (stereo partly drawn) [Compound 1033, (10S,11S,13S)-11-hydroxy-N,N,10,13-tetramethyl-3-oxohexadecahydro-1H-cyclopenta[a]phenanthrene-17-carboxamide] as the compound, how does the “% activation pAMPK at 1 nM” value read?
**A.** Its value is 107%.

**Q.** `C[C@]12CCC(=O)CC1CCC1C2[C@@H](O)C[C@]2(C)C(=O)CCC12` (stereo partly drawn) [Compound 1034, (10S,11S,13S)-11-hydroxy-10,13-dimethyltetradecahydro-3H-cyclopenta[a]phenanthrene-3,17(2H)-dione] was tested. Which “% activation pAMPK at 1 nM” value did it give?
**A.** The value was 104%.

**Q.** `CC(=O)[C@H]1CCC2C3CCC4=CC(=O)CC[C@]4(C)C3[C@@](C)(O)C[C@@]21C` (stereo partly drawn) [Compound 1035, (10R,11S,13S,17S)-17-acetyl-11-hydroxy-10,11,13-trimethyl-1,2,6,7,8,9,10,11,12,13,14,15,16,17-tetradecahydro-3H-cyclopenta[a]phenanthren-3-one] was tested. Which “% activation pAMPK at 1 nM” value did it give?
**A.** The value was 102%.

**Q.** `CC(O)C1CCC2C3CC=C4C[C@@H](O)CC[C@]4(C)C3[C@@H](O)C[C@]12C` (stereo partly drawn) [Compound 1036, (3S,10R,11S,13S)-17-(1-hydroxyethyl)-10,13-dimethyl-2,3,4,7,8,9,10,11,12,13,14,15,16,17-tetradecahydro-1H-cyclopenta[a]phenanthrene-3,11-diol] was tested. Which “% activation pAMPK at 1 nM” value did it give?
**A.** Its value is 102%.

**Q.** For `CC(O)[C@H]1CC[C@H]2[C@@H]3CCC4=C[C@@H](O)CC[C@]4(C)[C@H]3[C@@H](O)C[C@]12C` (stereo partly drawn) [Compound 1037, (3S,8S,9S,10R,11S,13S,14S,17S)-17-(1-hydroxyethyl)-10,13-dimethyl-2,3,6,7,8,9,10,11,12,13,14,15,16,17-tetradecahydro-1H-cyclopenta[a]phenanthrene-3,11-diol], which “% activation pAMPK at 1 nM” value is on record?
**A.** Its value is 95%.

**Q.** With `CO[C@H]1CC[C@@]2(C)C(=CCC3C2[C@@H](O)C[C@@]2(C)C3CC[C@@H]2C(C)=O)C1` (stereo partly drawn) [Compound 1038, 1-((3S,10R,11S,13S,17S)-11-hydroxy-3-methoxy-10,13-dimethyl-2,3,4,7,8,9,10,11,12,13,14,15,16,17-tetradecahydro-1H-cyclopenta[a]phenanthren-17-yl)ethan-1-one] as the compound, how does the “% activation pAMPK at 1 nM” value read?
**A.** Its value is 103%.

**Q.** `CC(O)C1CCC2C3CCC4CC5(CC[C@]4(C)C3[C@@H](O)C[C@]12C)OCCO5` (stereo partly drawn) [Compound 1039, (10S,11S,13S)-17-(1-hydroxyethyl)-10,13-dimethylhexadecahydrospiro[cyclopenta[a]phenanthrene-3,2′-[1,3]dioxolan]-11-ol] was tested. Which “% activation pAMPK at 1 nM” value did it give?
**A.** The value was 100%.

**Q.** For `CC(O)[C@H]1CCC2C3CCC4C[C@@H](O)CC[C@]4(C)C3[C@@H](O)C[C@@]21C` (stereo partly drawn) [Compound 1040, (3S,10S,11S,13S,17S)-17-(1-hydroxyethyl)-10,13-dimethylhexadecahydro-1H-cyclopenta[a]phenanthrene-3,11-diol], which “% activation pAMPK at 1 nM” value is on record?
**A.** Its value is 95%.

**Q.** With `CC[C@H]1CCC2C3CC=C4C[C@@H](O)CC[C@]4(C)C3[C@@H](O)C[C@@]21C` (stereo partly drawn) [Compound 1041, (3S,10R,11S,13R,17S)-17-ethyl-10,13-dimethyl-2,3,4,7,8,9,10,11,12,13,14,15,16,17-tetradecahydro-1H-cyclopenta[a]phenanthrene-3,11-diol] as the compound, how does the “% activation pAMPK at 1 nM” value read?
**A.** The value was 95%.

**Q.** Which “% activation pAMPK at 1 nM” value does the source give for `CC(=O)[C@H]1CCC2C3CCC4C[C@@H](O)CC[C@]4(C)C3[C@@H](O)C[C@@]21C` (stereo partly drawn) [Compound 1042, 1-((3S,10S,11S,13S,17S)-3,11-dihydroxy-10,13-dimethylhexadecahydro-1H-cyclopenta[a]phenanthren-17-yl)ethan-1-one] here?
**A.** The value was 96%.

**Q.** How did the “% activation pAMPK at 1 nM” value turn out when `[2H][C@]1(O)CC[C@@]2(C)C(=CCC3C2[C@@H](O)C[C@@]2(C)C3CC[C@@H]2C(C)=O)C1` (stereo partly drawn) [Compound 1045, 1-((3S,10R,11S,13S,17S)-3,11-dihydroxy-10,13-dimethyl-2,3,4,7,8,9,10,11,12,13,14,15,16,17-tetradecahydro-1H-cyclopenta[a]phenanthren-17-yl-3-d)ethan-1-one] was run?
**A.** Its value is 116%.

**Q.** How did the “% activation pAMPK at 1 nM” value turn out when `CC(=O)[C@H]1CCC2C3CC=C4C[C@@H](O)CC[C@]4(C)C3[C@@](C)(O)C[C@@]21C` (stereo partly drawn) [Compound 1047, 1-((3S,10R,11S,13S,17S)-3,11-dihydroxy-10,11,13-trimethyl-2,3,4,7,8,9,10,11,12,13,14,15,16,17-tetradecahydro-1H-cyclopenta[a]phenanthren-17-yl)ethan-1-one] was run?
**A.** The value was 119%.

**Q.** Which “% activation pAMPK at 1 nM” value does the source give for `C[C@]12C[C@H](O)C3C(CCC4=CC(=O)CC[C@@]43C)C1CCC2C(=O)CO` (stereo partly drawn) [Compound 1048, (10R,11S,13S)-11-hydroxy-17-(2-hydroxyacetyl)-10,13-dimethyl-1,2,6,7,8,9,10,11,12,13,14,15,16,17-tetradecahydro-3H-cyclopenta[a]phenanthren-3-one] here?
**A.** Its value is 108%.

test system: oxidative phosphorylation complex I; test: Slot blot method, complex I normalized to GAPDH; type: cell-based, bovine; conditions: not given
Description: Following treatment, bovine aortic endothelial cells grown in 12 well plates are scrapped in 50 μl of lysis buffer (1% Triton X-100, 20 mm Tris, 140 mm NaCl, 2 mm EDTA, and 0.1% SDS) with protease and phosphatase inhibitor cocktails (P2714 and P2850, Sigma-Aldrich) supplemented with 0.15 mm PMSF, 5 mm Na3VO4 and 3 mm NaF. Homogenates are passed through an insulin syringe five times, sonicated for 30 min at 4° C. and centrifuged (12,000 g) for 10 min. The total protein content is measured in the supernatant using the Bradford method. A total of 10-20 μg of protein are loaded into a pre-assembled slot blot apparatus to be transferred under vacuum onto polyvinyl membranes, incubated for 1 h in blocking solution (5% non-fat dry milk in TBS plus 0.1% Tween 20 (TBS-T)), followed by a overnight incubation at 4° C. with primary antibodies (oxidative phosphorylation complex I or GAPDH). Primary antibodies are diluted in TBS-T plus 5% non-fat dry milk. Membranes are washed (3× for 5 min) in TBS-T and incubated 1 h at room temperature in the presence of HRP-conjugated secondary antibodies diluted in blocking solution. Membranes are again washed 3 times in TBS-T, and the immunoblots developed using an ECL Plus detection kit (Amersham-GE). Band intensities are digitally quantified using ImageJ software (http://www.nih.gov). Complex I values are normalized for loading differences using GAPDH after stripping and reprobing of the membrane. All Western blot images to be obtained will be within the linear range of X-ray film to ensure computer-assisted densitometry accuracy.

**Q.** Which “Slot Blot Assay” value does the source give for `CC(=O)[C@H]1CC[C@H]2[C@@H]3CC=C4C[C@@H](O)CC[C@]4(C)[C@H]3[C@@H](O)C[C@]12C` [Compound 1002, 1-((3S,8S,9S,10R,11S,13S,14S,17S)-3,11-dihydroxy-10,13-dimethyl-2,3,4,7,8,9,10,11,12,13,14,15,16,17-tetradecahydro-1H-cyclopenta[a]phenanthren-17-yl)ethanone] here?
**A.** Its value is “+ (+ indicates >150% HCAEC)”.

**Q.** Which “Slot Blot Assay” value does the source give for `COC(=O)[C@H]1CC[C@H]2[C@@H]3CC=C4C[C@@H](O)CC[C@]4(C)[C@H]3[C@@H](O)C[C@]12C` [Compound 1004, (3S,8S,9S,10R,11S,13S,14S,17S)-methyl 3,11-dihydroxy-10,13-dimethyl-2,3,4,7,8,9,10,11,12,13,14,15,16,17-tetradecahydro-1H-cyclopenta[a]phenanthrene-17-carboxylate] here?
**A.** The value was “+ (+ indicates >150% HCAEC)”.

**Q.** How did the “Slot Blot Assay” value turn out when `CC[C@H]1CC[C@H]2[C@@H]3CC=C4C[C@@H](O)CC[C@]4(C)[C@H]3[C@@H](O)C[C@]12C` [Compound 1009, (3S,8S,9S,10R,11S,13R,14S,17S)-17-ethyl-10,13-dimethyl-2,3,4,7,8,9,10,11,12,13,14,15,16,17-tetradecahydro-1H-cyclopenta[a]phenanthrene-3,11-diol] was run?
**A.** The value was “+ (+ indicates >150% HCAEC)”.

**Q.** `Cc1noc([C@H]2CC[C@H]3[C@@H]4CCC5=CC(=O)CC[C@]5(C)[C@H]4[C@@H](O)C[C@]23C)n1` [Compound 1012, (8S,9S,10R,11S,13S,14S,17S)-11-hydroxy-10,13-dimethyl-17-(3-methyl-1,2,4-oxadiazol-5-yl)-6,7,8,9,10,11,12,13,14,15,16,17-dodecahydro-1H-cyclopenta[a]phenanthren-3(2H)-one] was tested. Which “Slot Blot Assay” value did it give?
**A.** The value was “+ (+ indicates >150% HCAEC)”.
